# Test results taken from US9345245B2, “Synthetic compounds for vegetative ABA responses” (THE REGENTS OF THE UNIVERSITY OF CALIFORNIA, priority 2012, dated 2016).
# Tests used:
# PYR/PYL receptors = assay: Receptor-mediated PP2C inhibition assay, all ABA receptors tested; assay type: biochemical, Arabidopsis; conditions: 10 μM; in the presence of all ABA receptors tested
# Protocol: HAB1 and PYL proteins were expressed and purified as described previously (Park S Y, et al. (2009) Abscisic Acid Inhibits Type 2C Protein Phosphatases via the PYR/PYL Family of START Proteins. Science 324(5930):1068-1071), with minor modifications. To obtain GST-HAB1, -ABI1 and -ABI2 fusion proteins, the HAB1 cDNA was cloned into pGex-2T whereas ABI1 and ABI2 cDNAs were cloned into the vector pGex-4T-1. Expression was conducted in BL21[DE3]pLysS host cells. Transformed cells were pre-cultured overnight, transferred to LB medium and cultured at 30° C. to culture A600 of 0.5. The culture was then cooled on ice and MnCl2 added to 4 mM and IPTG added to 0.3 mM. After 16 hours incubation at 15° C., cells were harvested and recombinant proteins were purified on glutathione agarose as described previously (Park S Y, et al. (2009). To obtain 6×His-PYL receptor fusion proteins, receptor cDNAs for all 13 ABA receptors were cloned into the vector pET28 and expressed and purified as described previously (Mosquna A, et al. (2011) Potent and selective activation of abscisic acid receptors in vivo by mutational stabilization of their agonist-bound conformation. PNAS 108(51):20838-20843); this yielded soluble and functional protein (assessed using receptor-mediated PP2C inhibition assays) for all receptors except PYL7, PYL11 and PYL12. […]
# Arabidopsis seeds = assay: Arabidopsis seed germination inhibition; assay type: in vivo; conditions: pyr1/pyl1/pyl2/pyl4 quadruple mutant; 5 μM
# Protocol: FIG. 5. Novel ABA agonists inhibit germination of Arabidopsis seeds more strongly than pyrabactin. (A) and (B) Comparison of seed germination inhibition by ABA agonists. (C) and (D) the effects of ABA and LC66C6 (also called quinabactin) on Arabidopsis ABA signaling- and biosynthesis-deficient mutants on germination (C) and seedling establishment (D). Seeds were sown on ½×MS agar plate containing chemicals, and were stored at 4° C. for 4 days, then transferred at 22±2° C. Photographs (A and C) and germination (B) or green cotyledon (D) scores were assessed after a 4-day incubation under continuous illumination. […] For Arabidopsis germination and hypocotyl growth inhibition analysis, seeds after-ripened about 4 weeks were surface-sterilized with a solution containing 5% NaClO and 0.05% Tween-20 for 10 minutes, and rinsed with water four times. Sterilized seeds were suspended with 0.1% agar and sowed on the 0.8% solidified agar medium containing ½ Murashige and Skoog (MS) salts (Sigma-Aldrich) in the presence of chemicals and were stored at 4° C. for 4 days, then transferred at 22° C. under the dark or light. Germination was determined after a 4-day incubation, whereas hypocotyl growth was photographed after 6-day incubation.
# ABA-responsive genes = assay: Quantitative RT-PCR of ABA-responsive genes in Arabidopsis; assay type: in vivo
# Protocol: FIG. 9. LC66C6 induces numerous ABA-responsive genes. […] Ten-day old seedlings were treated with carrier solvent (DMSO) or either 25 μM ABA, pyrabactin or LC66C6 for 8 hours. Total RNA was then prepared labeled and hybridized to ATH1 microarrays. Data plotted are log 2 transformed average expression values for ˜13K probes that were detectable across all experiments. Data shown are averages determined from triplicate biological replicates. (C) and (D) show the expression of a reporter gene in different plant tissues after treatment with vehicle (DMSO), pyrabactin, LC66C6, or (+)-ABA.
# Total RNA was isolated using Plant RNA purification reagent (Invitrogen, USA) according to the manufacturer's instructions. cDNA was synthesized from 1 μg of total RNA using the QantiTec reverse transcription kit (Qiagen, USA). Real-time PCR using Maxima® SYBR Green/Fluorescein qPCR Master Mix (Fermentas) was performed with the iQ5 real-time PCR detection system (Bio-Rad, Hercules, Calif.). The relative amounts of target mRNAs were determined using the relative standard curve method and were normalized by relative amount of internal control mRNA. Biological triplicate experiments were performed.
# [1] = system: CYP707A ABA-hydroxylating enzymes; assay: Growth and germination in CYP707A overexpressing and cyp707a double mutant plants; assay type: in vivo, Arabidopsis; conditions: 40 μM
# Text: FIG. 12. LC66C6 sensitivity is not influenced by the CYP707A ABA-hydroxylating enzymes.
# Chlamydomonas = assay: Colony growth of Chlamydomonas with and without salinity and osmotic stress; assay type: in vivo; conditions: with and without salinity and osmotic stress
# Protocol: FIG. 17. The effect of ABA and its agonists in Physcomitrella patens and Chlamydomonas. Protonemal growth images (A) and quantitative analysis (B) of the effects of ABA and agonists on Phsycomitrella patens. Protonema were grown on 200 μM of specific test chemical for 10 days. […] Pyrabactin bleached protonema. (C) The expression of ABA-responsive genes of Physcomitrella patens. Protonema were treated with 200 μM chemical solutions for 3 h. (D) Colony growth of Chlamydomonas on the chemical with salinity stress and osmotic stress. There was no effect of ABA and LC66C6 on the Chlamydomonas growth with and without stresses.
smiles,measurement,setting,value
"CC1=CC(=O)CC(C)(C)C1(O)/C=C/C(C)=C\C(=O)O (single isomer, unassigned; (+)) [(+)-ABA, Abscisic acid]","PPC2 enzyme activity of HBA1, ABI1, and ABI2 inhibited",PYR/PYL receptors,> 90%
same,inhibition of germination in quadruple mutant,Arabidopsis seeds,inhibit germination in the quadruple mutant
same,"induction of MAPKKK18, RD29A, and RD29B mRNAs","ABA-responsive genes; Col and Ler ecotypes and pyr1, pyl1, ply2, pyl3 and pyl4 single mutants",induced
same,"expression of ABF3, GBF3, NCED3, and RD29A",ABA-responsive genes; Col wild-type plants,"induced expression of ABF3, GBF3, NCED3, and RD29A in a dose dependent manner"
same,"expression of ABF3, GBF3, NCED3, and RD29A",ABA-responsive genes; abi1-1 and PYR/PYL quadruple mutant plants,induction levels were impaired
same,inhibition of plant growth and germination in plants that overexpress CYP707A,[1]; CYP707AOX vs wild-type,reduced
same,inhibition of plant growth and germination in cyp707a double mutant,[1]; cyp707a double mutant vs wild-type,enhanced
same,effect on growth of Chlamydomonas,Chlamydomonas,no effect
